In paper PMC6225474, “Polypyridyl Zinc(II)-Indomethacin Complexes with Potent Anti-Breast Cancer Stem Cell Activity” (Molecules : A Journal of Synthetic Chemistry and Natural …, 2018):
Read-outs that look alike come from different tables or passages of the source.

Legend:
[1] = test system: HMLER cells; conditions: MTT, 72 h incubation; cited from earlier work
[2] = test system: HMLER-shEcad cells; conditions: cited from earlier work; for IC50: MTT, 72 h incubation
[3] = test system: HMLER-shEcad mammospheres; design: method as in PMID 26865551; conditions: previous work; cited from earlier work
[4] = test system: HMLER-shEcad mammospheres; assay: Mammosphere formation assay (number and size of mammospheres); type: cell-based, human; conditions: HMLER-shEcad cells in suspension, treated at respective IC20 value for 5 days
Experimental: (§1) On day 1, 5000 HMLER-shEcad cells were seeded into each well of a 96-well ultralow-attachment plate. The culture media used was MEGM with B27 (Invitrogen), 20 ng/mL EGF, and 4 μg/mL heparin (Sigma). Compounds of interest were added to the HMLER-shEcad cells at various concentrations (0–133 μM), and the suspensions were incubated for 5 days. On day 6, the mammospheres were imaged and counted using a standard microscope. Afterwhich, TOX8 (Sigma) (20 µL) was added to each well and incubated for 16 h. On day 7, the solutions in each well were transferred to a black 96-well plate and the fluorescence was measured using a plate reader, 590 nm (λex = 560 nm). The arbitrary fluorescence values were normalised with respect to control wells (containing DMSO), and dose–response curves were plotted to determine the IC50 values. Three independent experiments were carried out, with each concentration having three repeats […].

[5] = test system: HMLER-shEcad mammospheres; design: method as in PMID 26806362, PMID 27774561, PMID 28932846; conditions: 120 h incubation, read-out: Mammosphere IC50; cited from earlier work
[6] = test system: HMLER cells; assay: MTT assay, bulk breast cancer cells (HMLER); type: cell-based, human; conditions: 72 h incubation
Experimental: (§2) HEK 293T human embryonic kidney cells purchased from American Type Culture Collection (ATCC, Manassas, VA, USA) were grown in DMEM (Dulbecco’s Modified Eagle’s Medium) with FBS (fetal bovine serum, 10%), and penicillin/streptomycin (1%). Human mammary epithelial CSC-depleted HMLER and human mammary epithelial CSC-enriched HMLER-shEcad cells were obtained from Prof. R.A. Weinberg (Whitehead Institute, MIT). These cells were grown in MEGM (Mammary Epithelial Cell Growth Medium) with BPE, hydrocortisone, hEGF, insulin, and gentamicin/amphotericin-B. All of the cells used in this study were cultured at 37 °C within a humidified incubator with a CO2 controller to maintin CO2 levels at 5%.
(§3) On day 1, 5000 cells (of the appropriate cell line) were plated in each well of a 96-well plate. The cells were then left to attach to the bottom of the wells overnight. On day 2, the compounds of interest were added (at different concentrations, 0.2–100 μM). The cells were incubated with the compounds for 72 h. The volume of each well at this stage was 200 μL. If DMSO was used to aid solubilization of the compounds, then the same amount of DMSO was also present in control wells. […] The absorption of each well was measured using a plate reader at 550 nm. […]

[7] = test system: HMLER-shEcad cells; assay: MTT assay, breast CSC-like cells (HMLER-shEcad); type: cell-based, human; conditions: 72 h incubation
Experimental: as §2, §3

[8] = test system: HEK 293T cells; assay: MTT assay, human embryonic kidney (HEK 293T) cells; type: cell-based; conditions: for IC50: MTT, 72 h incubation
Experimental: as §2
On day 1, 5000 cells (of the appropriate cell line) were plated in each well of a 96-well plate. The cells were then left to attach to the bottom of the wells overnight. On day 2, the compounds of interest were added (at different concentrations, 0.2–100 μM). The cells were incubated with the compounds for 72 h. The volume of each well at this stage was 200 μL. If DMSO was used to aid solubilization of the compounds, then the same amount of DMSO was also present in control wells. On day 5, a solution of 3-(4,5-dimethylthiazol-2-yl)-2,5-diphenyltetrazolium bromide (MTT) (4 mg/mL) predissolved in PBS was added to each well of the 96-well plate (20 μL). After a further 4 h incubation, the media/MTT solution was removed and the resultant purple formazan crystals were dissolved in DMSO (200 μL). The absorption of each well was measured using a plate reader at 550 nm. The absorption values were normalised according to the control wells and dose—response curves were plotted to determine the IC50 values. Three independent experiments were carried out, with each concentration having six repeats (n = 18).

[9] = test system: HMLER-shEcad mammospheres; assay: Mammosphere viability assay (TOX8); type: cell-based, human; conditions: TOX8, 5 days (120 h) incubation
Experimental: as §1

[10] = LogP by shake-flask method with UV-Vis spectroscopy; type: physicochemical; conditions: octanol/water, 100 µM, shaken 24 h, room temperature
Experimental: The shake-flask method in combination with UV-Vis spectroscopy was used to determine the LogP values of 2–5. Briefly, to a suspension of water (500 μL) and octanol (500 μL), 2–5 was added, giving a final concentration of 100 µM. The mixture was shaken for 24 h (room temperature). Using centrifugation, the water and octanol layers were separated and the concentration of 2–5 in each layer was determined using UV-Vis spectroscopy.

[11] = UV-Vis stability study in PBS:DMSO; type: physicochemical; conditions: 50 µM in PBS:DMSO (200:1), 24 h at 37 °C
Text: The shake-flask method was used to determine the lipophilicity (LogP) of 2–5. This involves determining the amount of a given compound partitioned between octanol and water using UV-Vis spectroscopy. […] The size of the polypyridyl ligand has a clear effect on lipophilicity, with LogP values increasing according to the following order; 2 < 3 < 4 < 5. The hydrophobicity of 2–5 implies that the zinc(II) complexes are likely to easily enter cells. […] The metal-perturbed π-π* and metal-to-ligand charge-transfer (MLCT) absorption bands of 2 (50 µM) in PBS:DMSO (200:1) were constant for 24 h at 37 °C (Figure S7), indicative of stability.

[12] = UV-Vis stability study in MEGM/DMSO; type: physicochemical; conditions: 50 µM in MEGM/DMSO (200:1), 24 h at 37 °C

Row | Compound | IC50 [1] [µM] | IC50 [2] [µM] | IC50 [6] [µM] | IC50 [7] [µM] | IC50 [8] [µM] | IC50 [9] [µM] | LogP [10] | further results
1 | N.N.O=C([O-])C1(C(=O)[O-])CCC1.[Pt+2] [carboplatin] | 67.3 ± 2.8 | 72.3 ± 7.9 | – | – | – | – | – | –
2 | N.N.[Cl][Pt][Cl] [cisplatin] | 3.4 ± 0.5 | 4.9 ± 0.4 | – | – | – | – | – | –
3 | COc1ccc2c(c1)c(CC(=O)O)c(C)n2C(=O)c1ccc(Cl)cc1 [indomethacin] | – | – | – | – | – | – | – | toxicity towards CSC-like cells ([2]; previous work): non-toxic; mammosphere inhibitory effect [3]: poor
4 | CC[C@@H](C(=O)[C@@H](C)[C@@H](O)[C@H](C)[C@@H]1O[C@@H]([C@@H](CC)C(=O)O)CC[C@@H]1C)[C@H]1O[C@]2(C=C[C@@H](O)[C@]3(CC[C@@](C)([C@H]4CC[C@](O)(CC)[C@H](C)O4)O3)O2)[C@H](C)C[C@@H]1C [salinomycin] | 11.4 ± 0.4 | 4.2 ± 0.3 | – | – | – | – | – | decrease in mammospheres formed [4]: 37%; IC50 [5]: 18.5 ± 1.5 µM
5 | Zn(indomethacin)2(1,10-phenanthroline) [Compound 3] | – | – | 1.1 ± 0.05 | 1.1 ± 0.08 | 2.3 ± 0.1 | 44.1 ± 0.6 | 0.97 | –
6 | Zn(indomethacin)2(2,2′-bipyridine) [Compound 2] | – | – | 1.2 ± 0.02 | 0.7 ± 0.04 | 20 ± 3.9 | > 133 | 0.89 | fold less potent toward HEK 293T cells than HMLER and HMLER-shEcad cells ([8]; ratio of IC50 values, p < 0.05): up to 17 fold; stability: metal-perturbed π-π* and MLCT absorption bands [11]: constant; stability: UV-Vis absorption bands [12]: unaltered
